Assay results taken from publication PMC12040169 (PLOS Biology, 2025).

Columns and labels:
[1] = system: T1, C. trachomatis L2/434/Bu expressing GFP (CTL2-GFP); assay: microbe, parasite or virus in culture; parameters: C. trachomatis total inclusion area by high-content imaging, normalised to DMSO; settings: Chlamydia trachomatis, HeLa, 28.5 h; total inclusion area; read-out: % of control remaining
T1 construct: L2/434/Bu GFP intracellular growth in HeLa cells
How it was run: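 First, bulk GFP and resorufin signals were measured in compound-treated infected cultures. Cells were next fixed and stained with Hoechst. Finally, high-content imaging quantified chlamydial inclusions (area, number) and host nuclei, and MICs were calculated.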

[2] = system: T2, CTL2-GFP (C. trachomatis L2/434/Bu, GFP-expressing); assay: microbe, parasite or virus in culture; parameters: Intracellular C. trachomatis growth in HeLa cells, bulk GFP fluorescence relative to DMSO; settings: Chlamydia trachomatis, HeLa, 28.5 h; bulk GFP, mean of 2; read-out: % of control remaining
T2 construct: L2/434/Bu, GFP-expressing
Protocol: MICs were calculated as described above.

in vitro = assay: in vitro; parameters: Viability of infected HeLa host cells, resazurin conversion, bulk resorufin fluorescence relative to DMSO; settings: human, hela cells; bulk resorufin, mean of 2

For N=C(N)SCc1csc(-c2ccc(Br)cc2)n1 [CBK017064C], the activity at 1 µM [1] was 80.7%, the activity at 5 µM [1] was 91.3% and the activity at 10 µM [1] was 25.6%. The activity at 1 µM [2] was 126%, the activity at 5 µM [2] was 97.9% and the activity at 10 µM [2] was 33.1%. The viability at 28.5 h, 1 µM (in vitro) was 90.5%, the viability at 28.5 h, 5 µM (in vitro) was 88.9% and the viability at 28.5 h, 10 µM (in vitro) was 91.1%.

Work on CC(=O)NC[C@H]1CN(c2ccc(C3=CC[S+]([O-])CC3)c(F)c2)C(=O)O1 (stereo partly drawn) [CBK017555] yielded an activity at 1 µM [1] of 85.7%, an activity at 5 µM [1] of 7.09% and an activity at 10 µM [1] of 1.05%. For the same compound, the activity at 1 µM [2] was 134%, the activity at 5 µM [2] was 11.9% and the activity at 10 µM [2] was 18.3%. It also gave a viability at 28.5 h, 1 µM (in vitro) of 88%, a viability at 28.5 h, 5 µM (in vitro) of 95.4% and a viability at 28.5 h, 10 µM (in vitro) of 86.3%.

CC(NC(C)(C)C)C(O)COc1ccc(Cl)c2c1C1CCC2CC1 (stereo not drawn) [CBK017752C] showed an activity at 1 µM [1] of 68%, an activity at 5 µM [1] of 78.7% and an activity at 10 µM [1] of 17.5%. For the same compound, the activity at 1 µM [2] was 125%, the activity at 5 µM [2] was 126% and the activity at 10 µM [2] was 66.4%. The viability at 28.5 h, 1 µM (in vitro) was 90.2%, the viability at 28.5 h, 5 µM (in vitro) was 95% and the viability at 28.5 h, 10 µM (in vitro) was 92.2%.

For O=C(CCN1CCCCC1)Nc1ccc2c(=O)n3c(nc2c1)/C(=C/c1ccccc1)CC3 [CBK017786], the activity at 1 µM [1] was 109%, the activity at 5 µM [1] was 20.7% and the activity at 10 µM [1] was 10.4%. It also gave an activity at 1 µM [2] of 142%, an activity at 5 µM [2] of 56.7% and an activity at 10 µM [2] of 26.3%. The viability at 28.5 h, 1 µM (in vitro) was 91.6%, the viability at 28.5 h, 5 µM (in vitro) was 90.4% and the viability at 28.5 h, 10 µM (in vitro) was 92.6%.

Work on Cc1ccc(OCc2ccccc2)c(C(CCN(C(C)C)C(C)C)c2ccccc2)c1 (stereo not drawn) [CBK017906] yielded an activity at 1 µM [1] of 112%, an activity at 5 µM [1] of 73.2% and an activity at 10 µM [1] of 22%. For the same compound, the activity at 1 µM [2] was 148%, the activity at 5 µM [2] was 124% and the activity at 10 µM [2] was 61.5%. It also gave a viability at 28.5 h, 1 µM (in vitro) of 91.6%, a viability at 28.5 h, 5 µM (in vitro) of 92.3% and a viability at 28.5 h, 10 µM (in vitro) of 86%.

Compound CC(=O)NC[C@H]1CN(c2ccc(-c3nnc(C(C)O)s3)c(F)c2)C(=O)O1 (stereo partly drawn) [CBK017968] has an activity at 1 µM [1] of 46.6%, an activity at 5 µM [1] of 0.644% and an activity at 10 µM [1] of 0.166%. For the same compound, the activity at 1 µM [2] was 51.4%, the activity at 5 µM [2] was 2.06% and the activity at 10 µM [2] was 5.93%. The viability at 28.5 h, 1 µM (in vitro) was 91.4%, the viability at 28.5 h, 5 µM (in vitro) was 90.3% and the viability at 28.5 h, 10 µM (in vitro) was 90.8%.

Work on Cc1noc(-c2ccc3c(c2O)OCCO3)c1-c1ccc(Cl)cc1 [CBK018086] yielded an activity at 1 µM [1] of 73.6%, an activity at 5 µM [1] of 0.782% and an activity at 10 µM [1] of 0.691%. For the same compound, the activity at 1 µM [2] was 62.5%, the activity at 5 µM [2] was 3.44% and the activity at 10 µM [2] was 2.13%. It also gave a viability at 28.5 h, 1 µM (in vitro) of 96.5%, a viability at 28.5 h, 5 µM (in vitro) of 97.6% and a viability at 28.5 h, 10 µM (in vitro) of 99%.

In the case of CC(=O)NC[C@H]1CN(c2ccc3c(c2)CCN(C(C)=O)CC3)C(=O)O1 [CBK018491], the activity at 1 µM [1] is reported as 57.6%, the activity at 5 µM [1] is reported as 10.2% and the activity at 10 µM [1] is reported as 1.08%. It also gave an activity at 1 µM [2] of 112%, an activity at 5 µM [2] of 8.52% and an activity at 10 µM [2] of 0.0674%. The viability at 28.5 h, 1 µM (in vitro) was 91.8%, the viability at 28.5 h, 5 µM (in vitro) was 95.1% and the viability at 28.5 h, 10 µM (in vitro) was 112%.

Work on CC(=O)NC[C@H]1CN(c2ccc3c(c2)CCN(C(=O)Oc2ccccc2)CC3)C(=O)O1 [CBK018498] yielded an activity at 1 µM [1] of 72.8%, an activity at 5 µM [1] of 12.5% and an activity at 10 µM [1] of 3.33%. It also gave an activity at 1 µM [2] of 125%, an activity at 5 µM [2] of 13.7% and an activity at 10 µM [2] of 1.02%. For the same compound, the viability at 28.5 h, 1 µM (in vitro) was 98.7%, the viability at 28.5 h, 5 µM (in vitro) was 94.2% and the viability at 28.5 h, 10 µM (in vitro) was 97.3%.

For CC(=O)NC[C@H]1CN(c2ccc3c(c2)CCN(C(=O)Cc2ccccc2)CC3)C(=O)O1 [CBK018499], the activity at 1 µM [1] was 38%, the activity at 5 µM [1] was 0.495% and the activity at 10 µM [1] was 0.215%. For the same compound, the activity at 1 µM [2] was 37.5%, the activity at 5 µM [2] was 2.41% and the activity at 10 µM [2] was 5.46%. It also gave a viability at 28.5 h, 1 µM (in vitro) of 92.9%, a viability at 28.5 h, 5 µM (in vitro) of 95.9% and a viability at 28.5 h, 10 µM (in vitro) of 92.1%.

For CCCCc1ccc(Nc2csc(N)n2)cc1 [CBK020594], the activity at 1 µM [1] was 58.1%, the activity at 5 µM [1] was 0.609% and the activity at 10 µM [1] was 0.496%. It also gave an activity at 1 µM [2] of 67.9%, an activity at 5 µM [2] of 10.8% and an activity at 10 µM [2] of 6.72%. The viability at 28.5 h, 1 µM (in vitro) was 89.3%, the viability at 28.5 h, 5 µM (in vitro) was 84.9% and the viability at 28.5 h, 10 µM (in vitro) was 76.9%.
